In patent publication US12121514B2, “Nonselective metabotropic glutamate receptor activators for treatment of attention deficit disorder and 22Q syndrome” (THE CHILDREN'S HOSPITAL OF PHILADELPHIA, priority 2015, dated 2024):
Where “and” joins values, the source holds several entries; their conditions need not be identical. Equal values may be shown once.

Tested on: adolescent subjects with ADHD and at least one genetic alteration in an mGluR network gene
Experiment: Vanderbilt ADHD score (items 1-18, parent), Phase Ib trial of NFC-1
Format: in vivo, human
Settings: for Change in Vanderbilt / Final Vanderbilt: individual subjects, monohydrate; for Change in Vanderbilt: placebo baseline (week 1) to final (week 5); for Final Vanderbilt: week 5; for Mean (SEM) Vanderbilt ADHD score, Repeated Measures Analysis: overall study population; for Percent of subjects completing the dose escalation to 400 mg bid that show improvement in Vanderbilt ADHD scores (at least 25% decrease) / Percent of subjects completing the dose escalation to 400 mg bid that show robust improvement in Vanderbilt ADHD scores (at least 40% decrease) / Percent of subjects demonstrating robust improvement in Vanderbilt ADHD score (at least 40% decrease) / Percent of subjects with improvement in Vanderbilt ADHD score (at least 25% decrease): relative to placebo (week 1) baseline
Source text: The Vanderbilt Rating Scale is a measure that can be completed by parents or teachers (separate forms, see Vanderbilt Rating Scale Parents and Vanderbilt Rating Scale Teachers). The Vanderbilt scale rates the child's behavior on items such as attention, finishing tasks, hyperactivity, difficulty waiting, and measures of conduct or oppositional defiant disorders—as well as measures of overall school performance and interactions with others. The first 18 items on the Vanderbilt scale correspond to those of the ADHD Rating Scale IV above while the Vanderbilt scale also includes items 19-47 related to other mental disorders including ODD (items 19-26), conduct disorder (items 27-40), anxiety (items 41, 42, and 47), and depression (items 43-46). Each of the behavioral assessment items on the Vanderbilt Scale are rated 0, 1, 2, or 3, with 0=never occurring; 1=occasionally, 2=often, and 3=very often. Thus, the ADHD Rating Scale IV, ADHD Rating Scale V, and items 1-18 of the Vanderbilt Rating Scale are equivalent scales, while additional items on the Vanderbilt Scale assess co-morbid phenotypes and disorders.
Each of the items are rated on a scale of 0, 1, 2, or 3, with 0=never; 1=occasionally, 2=often, and 3=very often. A total score of 0 to 54 is computed based on the answers to the 18 questions.
As used herein an “ADHD rating scale score,” “ADHD score” or “Vanderbilt ADHD score” are used interchangeably to refer to the computed score of the 18 items of the ADHD Rating Scale IV or V or the first 18 items of the Vanderbilt Rating Scale in any of their associated versions, e.g., for parent, teacher, or clinician to complete, and for a pediatric subject or adult subject. Clinical trials may assess the impact of drug or placebo on the ADHD score or Vanderbilt ADHD score (i.e. the score of 0 to 54 based on the first 18 items in the ADHD or Vanderbilt rating scale). In some cases, results of a clinical trial population may be analyzed by comparing the average score or a percentage change in score over time of administration of drug.
An open-label Phase Ib clinical trial was initiated to investigate the safety, pharmacokinetics and efficacy of NFC-1 (fasoracetam monohydrate) in adolescent subjects between the ages of 12 and 17 previously diagnosed with ADHD who also had at least one genetic alteration in an mGluR network gene.
Dose-escalation phase of the trial followed the PK and initial safety assessment and ran over a 5-week period. During week 1, all subjects were administered placebo capsules twice daily. After one week of placebo treatment, patients were started on 50 mg bid NFC-1 for 1 week. If safety and responsiveness data from prior dose level of fasoracetam indicated it was appropriate, subjects were then escalated to the next higher dose (100, 200, or 400 mg). […] Of the 30 trial subjects, 3 received a maximum dose of 100 mg, 9 received a maximum dose of 200 mg, and the remaining 18 received a maximum dose of 400 mg.
All efficacy assessments, except actigraphy, were made at study enrollment (“enrollment baseline”) and again, including actigraphy, once-per-week for the placebo week (“week 1” or “placebo baseline”) and at each of the 4 weeks of NFC-1 treatment. These efficacy measures include items 1-18 of the Vanderbilt scale assessing symptoms related to inattentiveness and hyperactivity-impulsiveness as well as additional questions 19-47 of the Vanderbilt scale assessing other behavioral symptoms (conducted by parent), actigraphy for quantitative measurement of activity, Quotient® ADHD test for objective measurement of micro-motion and shifts in attention state, PERMP-Math test, and CGI-I and CGI-S for assessment of global functioning. […]

[1] = Overall, Week 3, up to 100 mg bid
[2] = Overall, Week 4, up to 200 mg bid
[3] = Overall, Week 5, up to 400 mg bid
[4] = Tier 1, Week 3, up to 100 mg bid
[5] = Tier 1, Week 4, up to 200 mg bid
[6] = Tier 1, Week 5, up to 400 mg bid
[7] = Tier 2, Week 3, up to 100 mg bid
[8] = Tier 2, Week 4, up to 200 mg bid
[9] = Tier 2, Week 5, up to 400 mg bid

SMILES: O=C1CC[C@H](C(=O)N2CCCCC2)N1 [NFC-1, fasoracetam monohydrate]
- Vanderbilt (22q syndrome Subject 110, Week 2, 50 mg bid): 20
- Vanderbilt (22q syndrome Subject 110, Week 3, 100 mg bid): 17
- Vanderbilt (22q syndrome Subject 110, Week 4, 200 mg bid): 16
- Vanderbilt (22q syndrome Subject 110, Week 5, 400 mg bid): 17
- Vanderbilt (22q syndrome Subject 127, Week 2, 50 mg bid): 45
- Vanderbilt (22q syndrome Subject 127, Week 3, 100 mg bid): 25
- Vanderbilt (22q syndrome Subject 127, Week 5, 400 mg bid): 33
- change in Vanderbilt ADHD score (Subject 110 (22q syndrome), week 5 compared to week 1): 5 points
- Change in Vanderbilt (max dose 100 mg bid): −8 and −10 and −32
- Final Vanderbilt (max dose 100 mg bid): 0 and 22 and 17
- Change in Vanderbilt (max dose 200 mg bid): −14 and −3 and −9 and −32 and −5 and −1 and −35 and −2 and −8
- Final Vanderbilt (max dose 200 mg bid): 23 and 3 and 0 and 18 and 31 and 1 and 12 and 39 and 30
- Change in Vanderbilt (max dose 400 mg bid): −4 and −5 and 4 and −13 (2×) and 21 and −16 (2×) and 1 and 0 and −9 and −10 and −21 and −6 and −11 and −20 and −1
- Final Vanderbilt (max dose 400 mg bid): 6 and 17 (2×) and 34 and 36 and 46 and 12 (2×) and 0 and 15 and 24 and 14 and 23 and 29 and 33 and 16 and 35
- Mean (SEM) Vanderbilt ADHD score, Repeated Measures Analysis (Week 2, 50 mg bid): 26.4 (8.1)
- Mean (SEM) Vanderbilt ADHD score, Repeated Measures Analysis (Week 3, up to 100 mg bid): 24.0 (8.1)
- Mean (SEM) Vanderbilt ADHD score, Repeated Measures Analysis (Week 4, up to 200 mg bid): 23.3 (8.1)
- Mean (SEM) Vanderbilt ADHD score, Repeated Measures Analysis (Week 5, up to 400 mg bid): 22.5 (8.1)
- Percent of subjects completing the dose escalation to 400 mg bid that show improvement in Vanderbilt ADHD scores (at least 25% decrease) (Overall, Week 2, 50 mg bid): 14%
- Percent of subjects completing the dose escalation to 400 mg bid that show robust improvement in Vanderbilt ADHD scores (at least 40% decrease) (Overall, Week 2, 50 mg bid): 7%
- Percent of subjects demonstrating robust improvement in Vanderbilt ADHD score (at least 40% decrease) (Overall, Week 2, 50 mg bid): 7%
- Percent of subjects with improvement in Vanderbilt ADHD score (at least 25% decrease) (Overall, Week 2, 50 mg bid): 25%
- Percent of subjects completing the dose escalation to 400 mg bid that show improvement in Vanderbilt ADHD scores (at least 25% decrease) (Overall, Week 3, 100 mg bid): 36%
- Percent of subjects completing the dose escalation to 400 mg bid that show robust improvement in Vanderbilt ADHD scores (at least 40% decrease) (Overall, Week 3, 100 mg bid): 29%
- Percent of subjects demonstrating robust improvement in Vanderbilt ADHD score (at least 40% decrease) [1]: 25%
- Percent of subjects with improvement in Vanderbilt ADHD score (at least 25% decrease) [1]: 43%
- Percent of subjects completing the dose escalation to 400 mg bid that show improvement in Vanderbilt ADHD scores (at least 25% decrease) (Overall, Week 4, 200 mg bid): 36%
- Percent of subjects completing the dose escalation to 400 mg bid that show robust improvement in Vanderbilt ADHD scores (at least 40% decrease) (Overall, Week 4, 200 mg bid): 21%
- Percent of subjects demonstrating robust improvement in Vanderbilt ADHD score (at least 40% decrease) [2]: 32%
- Percent of subjects with improvement in Vanderbilt ADHD score (at least 25% decrease) [2]: 43%
- Percent of subjects completing the dose escalation to 400 mg bid that show improvement in Vanderbilt ADHD scores (at least 25% decrease) (Overall, Week 5, 400 mg bid): 57%
- Percent of subjects completing the dose escalation to 400 mg bid that show robust improvement in Vanderbilt ADHD scores (at least 40% decrease) (Overall, Week 5, 400 mg bid): 36%
- Percent of subjects demonstrating robust improvement in Vanderbilt ADHD score (at least 40% decrease) [3]: 37%
- Percent of subjects with improvement in Vanderbilt ADHD score (at least 25% decrease) [3]: 52%
- Percent of subjects completing the dose escalation to 400 mg bid that show improvement in Vanderbilt ADHD scores (at least 25% decrease) (Tier 1, Week 2, 50 mg bid): 22%
- Percent of subjects completing the dose escalation to 400 mg bid that show robust improvement in Vanderbilt ADHD scores (at least 40% decrease) (Tier 1, Week 2, 50 mg bid): 11%
- Percent of subjects demonstrating robust improvement in Vanderbilt ADHD score (at least 40% decrease) (Tier 1, Week 2, 50 mg bid): 12%
- Percent of subjects with improvement in Vanderbilt ADHD score (at least 25% decrease) (Tier 1, Week 2, 50 mg bid): 29%
- Percent of subjects completing the dose escalation to 400 mg bid that show improvement in Vanderbilt ADHD scores (at least 25% decrease) (Tier 1, Week 3, 100 mg bid): 44%
- Percent of subjects completing the dose escalation to 400 mg bid that show robust improvement in Vanderbilt ADHD scores (at least 40% decrease) (Tier 1, Week 3, 100 mg bid): 44%
- Percent of subjects demonstrating robust improvement in Vanderbilt ADHD score (at least 40% decrease) [4]: 44%
- Percent of subjects with improvement in Vanderbilt ADHD score (at least 25% decrease) [4]: 50%
- Percent of subjects completing the dose escalation to 400 mg bid that show improvement in Vanderbilt ADHD scores (at least 25% decrease) (Tier 1, Week 4, 200 mg bid): 44%
- Percent of subjects completing the dose escalation to 400 mg bid that show robust improvement in Vanderbilt ADHD scores (at least 40% decrease) (Tier 1, Week 4, 200 mg bid): 33%
- Percent of subjects demonstrating robust improvement in Vanderbilt ADHD score (at least 40% decrease) [5]: 50%
- Percent of subjects with improvement in Vanderbilt ADHD score (at least 25% decrease) [5]: 56%
- Percent of subjects completing the dose escalation to 400 mg bid that show improvement in Vanderbilt ADHD scores (at least 25% decrease) (Tier 1, Week 5, 400 mg bid): 56%
- Percent of subjects completing the dose escalation to 400 mg bid that show robust improvement in Vanderbilt ADHD scores (at least 40% decrease) (Tier 1, Week 5, 400 mg bid): 33%
- Percent of subjects demonstrating robust improvement in Vanderbilt ADHD score (at least 40% decrease) [6]: 44%
- Percent of subjects with improvement in Vanderbilt ADHD score (at least 25% decrease) [6]: 56%
- Percent of subjects completing the dose escalation to 400 mg bid that show improvement in Vanderbilt ADHD scores (at least 25% decrease) (Tier 2, Week 2, 50 mg bid): 0%
- Percent of subjects completing the dose escalation to 400 mg bid that show robust improvement in Vanderbilt ADHD scores (at least 40% decrease) (Tier 2, Week 2, 50 mg bid): 0%
- Percent of subjects demonstrating robust improvement in Vanderbilt ADHD score (at least 40% decrease) (Tier 2, Week 2, 50 mg bid): 0%
- Percent of subjects with improvement in Vanderbilt ADHD score (at least 25% decrease) (Tier 2, Week 2, 50 mg bid): 29%
- Percent of subjects completing the dose escalation to 400 mg bid that show improvement in Vanderbilt ADHD scores (at least 25% decrease) (Tier 2, Week 3, 100 mg bid): 20%
- Percent of subjects completing the dose escalation to 400 mg bid that show robust improvement in Vanderbilt ADHD scores (at least 40% decrease) (Tier 2, Week 3, 100 mg bid): 0%
- Percent of subjects demonstrating robust improvement in Vanderbilt ADHD score (at least 40% decrease) [7]: 0%
- Percent of subjects with improvement in Vanderbilt ADHD score (at least 25% decrease) [7]: 43%
- Percent of subjects completing the dose escalation to 400 mg bid that show improvement in Vanderbilt ADHD scores (at least 25% decrease) (Tier 2, Week 4, 200 mg bid): 20%
- Percent of subjects completing the dose escalation to 400 mg bid that show robust improvement in Vanderbilt ADHD scores (at least 40% decrease) (Tier 2, Week 4, 200 mg bid): 0%
- Percent of subjects demonstrating robust improvement in Vanderbilt ADHD score (at least 40% decrease) [8]: 14%
- Percent of subjects with improvement in Vanderbilt ADHD score (at least 25% decrease) [8]: 43%
- Percent of subjects completing the dose escalation to 400 mg bid that show improvement in Vanderbilt ADHD scores (at least 25% decrease) (Tier 2, Week 5, 400 mg bid): 60%
- Percent of subjects completing the dose escalation to 400 mg bid that show robust improvement in Vanderbilt ADHD scores (at least 40% decrease) (Tier 2, Week 5, 400 mg bid): 40%
- Percent of subjects demonstrating robust improvement in Vanderbilt ADHD score (at least 40% decrease) [9]: 43%
- Percent of subjects with improvement in Vanderbilt ADHD score (at least 25% decrease) [9]: 71%
- Percent of subjects completing the dose escalation to 400 mg bid that show improvement in Vanderbilt ADHD scores (at least 25% decrease) (Tier 3, Week 2, 50 mg bid): 33%
- Percent of subjects completing the dose escalation to 400 mg bid that show robust improvement in Vanderbilt ADHD scores (at least 40% decrease) (Tier 3, Week 2, 50 mg bid): 33%
- Percent of subjects demonstrating robust improvement in Vanderbilt ADHD score (at least 40% decrease) (Tier 3, Week 2, 50 mg bid): 0%
- Percent of subjects with improvement in Vanderbilt ADHD score (at least 25% decrease) (Tier 3, Week 2, 50 mg bid): 0%
- Percent of subjects completing the dose escalation to 400 mg bid that show improvement in Vanderbilt ADHD scores (at least 25% decrease) (Tier 3, Week 3, 100 mg bid): 33%
- Percent of subjects completing the dose escalation to 400 mg bid that show robust improvement in Vanderbilt ADHD scores (at least 40% decrease) (Tier 3, Week 3, 100 mg bid): 0%
